The results in this text go back to US8835458B2 (Hanmi Science Co., Ltd, priority 2010, dated 2014).

Where a name gives a salt, the structure may show the parent alone. Read-outs that look alike come from different tables or passages of the source. A value given as a limit tells only on which side of the number the result lay.

Series [1] deals with MDA-MB-231 breast cancer cell lines. In words: Evaluation of inhibition on cell growth (MTS). Particulars: Homo sapiens, MDA-MB-231, 120 hours. The class given is cell-based. The method in brief:
(§1)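 Cells seeded at 3,000˜5,000 cells/100 μL, grown 24 h at 37° C (MDA-MB-231 under atmospheric conditions), then exposed to 10 μM˜0.1 nM compound. MDA-MB-231 cultured 120 h, read by MTS at 490 nm; fibroblasts cultured 72 h, TCA-fixed, SRB-stained, read at 540 nm. GI50 from growth relative to untreated and medium-only cells.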

A short description of series [2]: Toxicity to normal cells (SRB). It is filed as cell-based, mouse. Particulars: mouse, Balb/c3t3 fibroblasts (normal cell line), read-out: BalB/C (GI50). The method, then: MDA-MB-231 breast cancer cell lines (ATCC #HTB-26) and BxPC-3 pancreas cancer cell lines (ATCC #CRL 1687), which have been reported to express XIAP, were obtained from ATCC (American type culture collection; Rockville, Md.). MDA-MB-231 cell lines were incubated in L-15 medium supplemented with 10% FBS and 1% penicillin/streptomycin (Gibco BRL) at a T-75 cm^2 growth flask. In addition, BxPC-3 cell lines were incubated in RPMI medium supplemented with 10% FBS and 1% penicillin/streptomycin. For experiments of toxicity to normal cells, fibroblasts Hs27 (ATCC #CRL 1634) and Balb/c3t3 (ATCC #CCL 163) were used. The various cell lines were transferred into 96-well plates at a density of 3,000˜5,000 cells/100 μL, and cultured for 24 hours under conditions of 37° C., 5% CO2, 95% air, and 100% relative humidity (MDA-MB-231 cells were cultured under atmospheric conditions). The cells were treated with 10 μM˜0.1 nM of test compounds, and MDA-MB-231, BxPC-3, and normal cell lines were cultured for 120, 96, and 72 hours, respectively.
Cell viabilities of MDA-MB-231 cell lines were measured at an absorbance of 490 nm using CellTiter 96™ AQueous One Solution Cell proliferation Assay (MTS, Promega), and cell viabilities of BxPC-3 and normal cell lines were measured by fixing cells with 10% TCA (trichloroacetic acid), staining with SRB (sulforhodamine B), and measuring at 540 nm. From the values, GI50 values in which test compounds reduce the growth of cancer cells by 50% were calculated. The growth rates of cancer cells were calculated from following Equation 1 or 2. [(Ti−Tz)/(C−Tz)]×100 (for Ti>=Tz) [Equation 1] [(Ti−Tz)/Tz]×100 (for Ti<Tz) [Equation 2] In Equations 1 and 2, Tz refers to a density of untreated cells, which is an absorbance in 0% cell growth groups. C refers to a density of cells cultured by adding only medium, and Ti refers to a density of cells treated with test compounds.
GI50 value is the concentration of a test compound when the value of Equation 1 is 50, which indicates the concentration of test compound required to inhibit the cancer cells by 50%. On each measurement, test compounds were compared with a control.
The activity value of each compound (GI50 value) was shown in Table 5, and an IAP antagonist was used as a control.
In the activity measurement on MDA-MB-231 breast cancer cell lines, the values were represented as “***” for 100 nM or less, “**” for over 100 nM to below 1,000 nM, and “*” for 1,000 nM or more. In the measurement on normal cell lines, Balb/C and Hs27, the values were represented as “+++” for 10,000 nM or more, “++” for over 5,000 nM to below 10,000 nM, and “+” for 5,000 nM or less.

Series [3] in a line: Toxicity to normal cells (SRB). Particulars: human, Hs27 fibroblasts (normal cell line). The class given is cell-based, human. The method in brief:
as §1

In series [1], `CN[C@@H](C)C(=O)N[C@H](C(=O)N1CCC[C@H]1C(=O)Nc1cc2c(Nc3ccccc3Cl)ncnc2cc1OC)C(C)(C)C` [Example 21, (S)—N-(4-(2-chlorophenylamino)-7-methoxyquinazolin-6-yl)-1-((S)-3,3-dimethyl-2-((S)-2-(methylamino)propanamido)butanoyl)pyrrolidine-2-carboxamide hydrochloride] showed a GI50 not above 0.1 µM. Besides, the GI50 at 72 h in series [2] and in series [3] was more than 10 µM in each case.

`CN[C@@H](C)C(=O)N[C@H](C(=O)N1CCC[C@H]1C(=O)Nc1cc2c(Nc3ccccc3Br)ncnc2cc1OC)C(C)(C)C` [Example 22, (S)—N-(4-(2-bromophenylamino)-7-methoxyquinazolin-6-yl)-1-((S)-3,3-dimethyl-2-((S)-2-(methylamino)propanamido)butanoyl)pyrrolidine-2-carboxamide hydrochloride] yielded a GI50 in series [1] not above 0.1 µM. Also, the GI50 at 72 h in series [2] and in series [3] was more than 10 µM throughout.

Consider `CNc1ncnc2cc(OC)c(NC(=O)[C@@H]3CCCN3C(=O)[C@@H](NC(=O)[C@H](C)NC)C(C)(C)C)cc12` [Example 23, (S)-1-((S)-3,3-dimethyl-2-((S)-2-(methylamino)propanamido)butanoyl)-N-(7-methoxy-4-(methylamino)quinazolin-6-yl)pyrrolidine-2-carboxamide], for which the GI50 in series [1] was not above 0.1 µM. The GI50 at 72 h in series [2] and in series [3] was more than 10 µM throughout.

Take `CN[C@@H](C)C(=O)N[C@H](C(=O)N1CCC[C@H]1C(=O)Nc1cc2c(N3CCCCC3)ncnc2cc1OC)C(C)(C)C` [Example 24, (S)-1-((S)-3,3-dimethyl-2-((S)-2-(methylamino)propanamido)butanoyl)-N-(7-methoxy-4-(piperidin-1-yl)quinazolin-6-yl)pyrrolidine-2-carboxamide hydrochloride]: in series [1], the GI50 was not above 0.1 µM. Also, the GI50 at 72 h in series [2] and in series [3] was more than 10 µM in each case.

In series [1], `CN[C@@H](C)C(=O)N[C@H](C(=O)N1CCCC[C@H]1C(=O)Nc1cc2c(Nc3ccc(F)c(Cl)c3F)ncnc2cc1OC)C(C)(C)C` [Example 25] came in with a GI50 of 0.1 to 1 µM. For the same compound, the GI50 at 72 h in series [2] and in series [3] was more than 10 µM each time.

`CN[C@@H](C)C(=O)N[C@H](C(=O)N1CCC[C@H]1C(=O)Nc1cc2c(Nc3ccccc3C)ncnc2cc1OC)C(C)(C)C` [Example 27, (S)—N-(4-(o-toluidino)-7-methoxyquinazolin-6-yl)-1-((S)-3,3-dimethyl-2-((S)-2-(methylamino)propanamido)butanoyl)pyrrolidine-2-carboxamide hydrochloride] yielded a GI50 in series [1] not above 0.1 µM. The GI50 at 72 h in series [2] and in series [3] was more than 10 µM in each case.

In turn, `CN[C@@H](C)C(=O)N[C@H](C(=O)N1CCC[C@H]1C(=O)Nc1cc2c(Nc3ccc(F)cc3F)ncnc2cc1OC)C(C)(C)C` [Example 28, (S)—N-(4-(2,4-difluorophenylamino)-7-methoxyquinazolin-6-yl)-1-((S)-3,3-dimethyl-2-((S)-2-(methylamino)propanamido)butanoyl)pyrrolidine-2-carboxamide hydrochloride] came in with a GI50 in series [1] not above 0.1 µM. For the same compound, the GI50 at 72 h in series [2] and in series [3] was more than 10 µM in each case.

`CN[C@@H](C)C(=O)N[C@H](C(=O)N1CCC[C@H]1C(=O)Nc1cc2c(Nc3ccc(Cl)cc3F)ncnc2cc1OC)C(C)(C)C` [Example 29, (S)—N-(4-(4-chloro-2-fluorophenylamino)-7-methoxyquinazolin-6-yl)-1-((S)-3,3-dimethyl-2-((S)-2-(methylamino)propanamido)butanoyl)pyrrolidine-2-carboxamide hydrochloride] yielded a GI50 in series [1] not above 0.1 µM. Moreover, the GI50 at 72 h in series [2] and in series [3] was more than 10 µM in each case.

Turning to `CN[C@@H](C)C(=O)N[C@H](C(=O)N1CCC[C@H]1C(=O)Nc1cc2c(Nc3ccccc3OC)ncnc2cc1OC)C(C)(C)C` [Example 30, (S)—N-(4-(2-methoxyphenylamino)-7-methoxyquinazolin-6-yl)-1-((S)-3,3-dimethyl-2-((S)-2-(methylamino)propanamido)butanoyl)pyrrolidine-2-carboxamide hydrochloride], the GI50 in series [1] is not above 0.1 µM. Moreover, the GI50 at 72 h in series [2] and in series [3] was more than 10 µM in each case.

Consider `CN[C@@H](C)C(=O)N[C@H](C(=O)N1CCC[C@H]1C(=O)Nc1cc2c(N(C)c3ccccc3)ncnc2cc1OC)C(C)(C)C` [Example 31, (S)-1-((S)-3,3-dimethyl-2-((S)-2-(methylamino)propanamido)butanoyl)-N-(7-methoxy-4-(methyl(phenyl)amino)quinazolin-6-yl)pyrrolidine-2-carboxamide hydrochloride], for which the GI50 in series [1] is not above 0.1 µM. Also, the GI50 at 72 h in series [2] and in series [3] was more than 10 µM throughout.

In series [1], `CN[C@@H](C)C(=O)N[C@H](C(=O)N1CCC[C@H]1C(=O)Nc1cc2c(Nc3ccc4ccccc4c3)ncnc2cc1OC)C(C)(C)C` [Example 32, (S)-1-((S)-3,3-dimethyl-2-((S)-2-(methylamino)propanamido)butanoyl)-N-(7-methoxy-4-(naphthalen-2-ylamino)quinazolin-6-yl)pyrrolidine-2-carboxamide] had a GI50 not above 0.1 µM. Moreover, the GI50 at 72 h in series [2] and in series [3] was more than 10 µM each time.

In series [1], `CN[C@@H](C)C(=O)N[C@H](C(=O)N1CCC[C@H]1C(=O)Nc1cc2c(Nc3ccccn3)ncnc2cc1OC)C(C)(C)C` [Example 33, (S)-1-((S)-3,3-dimethyl-2-((S)-2-(methylamino)propanamido)butanoyl)-N-(7-methoxy-4-(pyridin-2-ylamino)quinazolin-6-yl)pyrrolidine-2-carboxamide] registered a GI50 not above 0.1 µM. Besides, the GI50 at 72 h in series [2] and in series [3] was more than 10 µM throughout.

In series [1], `CN[C@@H](C)C(=O)N[C@H](C(=O)N1CCC[C@H]1C(=O)Nc1cc2c(N[C@@H](C)c3ccccc3)ncnc2cc1OC)C(C)(C)C` [Example 34, (S)-1-((S)-3,3-dimethyl-2-((S)-2-(methylamino)propanamido)butanoyl)-N-(7-methoxy-4-((S)-1-phenylmethylamino)quinazolin-6-yl)pyrrolidine-2-carboxamide hydrochloride] came in with a GI50 not above 0.1 µM. For the same compound, the GI50 at 72 h in series [2] and in series [3] was more than 10 µM each time.

With `CN[C@@H](C)C(=O)N[C@H](C(=O)N1CCC[C@H]1C(=O)Nc1cc2c(NCc3ccc(F)cc3F)ncnc2cc1OC)C(C)(C)C` [Example 35, (S)—N-(4-(2,4-difluorobenzylamino)-7-methoxyquinazolin-6-yl)-1-((S)-3,3-dimethyl-2-((S)-2-(methylamino)propanamido)butanoyl)pyrrolidine-2-carboxamide hydrochloride], the GI50 in series [1] was not above 0.1 µM. The GI50 at 72 h in series [2] and in series [3] was more than 10 µM each time.

`CN[C@@H](C)C(=O)N[C@H](C(=O)N1CCC[C@H]1C(=O)Nc1cc2c(N)ncnc2cc1OC)C(C)(C)C` [Example 36, (S)—N-(4-amino-7-methoxyquinazolin-6-yl)-1-((S)-3,3-dimethyl-2-((S)-2-(methylamino)propanamido)butanoyl)pyrrolidine-2-carboxamide]: the GI50 in series [1] fell in the range of 0.1 to 1 µM. The GI50 at 72 h in series [2] and in series [3] was more than 10 µM each time.

For the compound `CN[C@@H](C)C(=O)N[C@H](C(=O)N1CCC[C@H]1C(=O)Nc1cc2c(Nc3ccc(OCc4cccc(F)c4)c(Cl)c3)ncnc2cc1OC)C(C)(C)C` [Example 37, (S)—N-(4-(3-chloro-4-(3-fluorobenzyloxy)phenylamino)-7-methoxyquinazolin-6-yl)-1-((S)-3,3-dimethyl-2-((S)-2-(methylamino)propanamido)butanoyl)pyrrolidine-2-carboxamide hydrochloride], the GI50 in series [1] is not above 0.1 µM. Moreover, the GI50 at 72 h in series [2] and in series [3] was more than 10 µM throughout.
